# From patent US20240124434A1, “ATF6 INHIBITORS AND USES THEREOF” (Altos Labs, Inc., priority 2018, published 2024)
# Counter-ions that a name gives are not always drawn. Like-named read-outs stand apart in the source and are kept apart here.
# Assays:
# ATF6 = assay: ERSE ATF6-luciferase reporter assay (thapsigargin-induced ER stress); assay type: cell-based, human; conditions: Homo sapiens, U2OS, thapsigargin-induced ER stress, U2-OS ATF6 luc reporter cells; for inhibition at 1 µM: 8 hr
# [1] = Kinetic solubility (nephelometry); assay type: physicochemical; conditions: aqueous buffer, kinetic from dmso stock; PBS pH 7.4, 1% DMSO, 1 hour at 37° C., light scattering at 625 nm
# Experimental: Concentration (μM) was then calculated by segmental regression. Amiodarone (#A8423 Aldrich) was used as positive control.
# [2] = In vitro microsomal stability, human liver microsomes; assay type: in vitro ADME; conditions: for half-life at 1 μM: human, read-out: T1/2 @ hLM; for half-life at 1 μM / microsomal CLint at […], 1 µM: human liver microsomes, pH 7.4; for microsomal CLint at […], 1 µM: intrinsic clearance, read-out: Clint @ hLM; for Rem. @ hLM (%): remaining fraction after 30 min, 1 μM compound, 0.5 mg/mL human liver microsomes, 1 mM NADPH
# Experimental: (§1) Compounds were incubated at a final concentration of 1 μM with 0.5 mg/mL human liver microsomes (hLM) (#HMMCPL; Thermo), mouse liver microsomes (mLM) (#MSMCPL; Thermo) or rat liver microsomes (rLM) (#RTMCPL; Thermo) and 1 mM reduced dihydronicotinamide-adenine dinucleotide phosphate (NADPH) (#N1630; Sigma) in 100 mM phosphate buffer (pH 7.4) at 37° C. The reactions were terminated at 0, 5, 15 and 30 min by the addition of cold acetonitrile containing 50 ng/mL propranolol as an internal standard. […] Verapamil hydrochloride (#V4369 Aldrich) was used as a positive control in all studies.
# [3] = In vitro microsomal stability, mouse liver microsomes; assay type: in vitro ADME; conditions: for microsomal CLint at […], 1 µM: intrinsic clearance, read-out: Clint @ mLM; for Rem. @ mLM (%): remaining fraction after 30 min, 1 μM compound, 0.5 mg/mL mouse liver microsomes, 1 mM NADPH
# Experimental: as §1
# [4] = In vitro microsomal stability, rat liver microsomes; assay type: in vitro ADME; conditions: for microsomal CLint at […], 1 µM / half-life at […], 1 µM: pH 7.4, rat liver microsomes; for microsomal CLint at […], 1 µM: intrinsic clearance, read-out: Clint @ rLM; for half-life at […], 1 µM: rat, read-out: T1/2 @ rLM; for Rem. @ rLM (%): remaining fraction after 30 min, 1 μM compound, 0.5 mg/mL rat liver microsomes, 1 mM NADPH
# Experimental: as §1
# [5] = 8 h, 1 μM test compound, read-out: Inh. ATF6-Luc @ 1 μM [%]
# [6] = dose-response 30 μM to 1 nM, read-out: IC50 ATF6-Luc reporter
# [7] = mouse, mouse liver microsomes, pH 7.4, read-out: T1/2 @ mLM
SMILES,IC50 (ATF6; [6]) [µM],inhibition at 1 µM (ATF6; [5]) [%],other results
"CC(c1ccc(C(F)(F)F)cc1C(F)(F)F)n1cc(NC(=O)c2cc(-c3ccco3)on2)cn1 (centres unmarked) [Compound 12, N-(1-{1-[2,4-bis(trifluoromethyl)phenyl]ethyl}-1H-pyrazol-4-yl)-5-(furan-2-yl) isoxazole-3-carboxamide]",< 1,> 50,"half-life at 1 μM [2]: 29.9 min; microsomal CLint at […], 1 µM [2]: 46 µL/min/mg; Rem. @ hLM (%) [2]: 46.1%; half-life at […], 1 µM [3, 7]: 4.6 min; microsomal CLint at […], 1 µM ([3]; pH 7.4, mouse liver microsomes): 302 µL/min/mg; Rem. @ mLM (%) [3]: 1.02%; microsomal CLint at […], 1 µM [4]: 291 µL/min/mg; half-life at […], 1 µM [4]: 4.8 min; Rem. @ rLM (%) [4]: 0.77%"
"Cc1ccc(-c2cc(C(=O)Nc3cnn(Cc4ccc(C(F)(F)F)cc4C(F)(F)F)c3)no2)o1 [Compound 22, N-(1-(2,4-bis(trifluoromethyl)benzyl)-1H-pyrazol-4-yl)-5-(5-methylfuran-2-yl)isoxazole-3-carboxamide]",1 to 10,< 25,"half-life at 1 μM [2]: 6.5 min; microsomal CLint at […], 1 µM [2]: 212 µL/min/mg; Rem. @ hLM (%) [2]: 3.7%; half-life at […], 1 µM [3, 7]: 6.1 min; microsomal CLint at […], 1 µM ([3]; pH 7.4, mouse liver microsomes): 228 µL/min/mg; Rem. @ mLM (%) [3]: 3.3%; microsomal CLint at […], 1 µM [4]: 204 µL/min/mg; half-life at […], 1 µM [4]: 6.8 min; Rem. @ rLM (%) [4]: 4.5%"
"CC(c1ccc(C(F)(F)F)cc1C(F)(F)F)n1cc(NC(=O)c2cc(-c3cccs3)on2)cn1 (centres unmarked) [Compound 9, N-(1-(1-(2,4-bis(trifluoromethyl)phenyl)-ethyl)-1H-pyrazol-4-yl)-5-(thiophen-2-yl)isoxazole-3-carboxamide]",1 to 10,< 25,solubility kinetic at 1 h [1]: 8.9 µM
"C[C@H](c1ccc(C(F)(F)F)cc1C(F)(F)F)n1cc(NC(=O)c2cc(-c3ccccn3)[nH]n2)cn1 [Compound 119, (R)—N-(1-(1-(2,4-bis(trifluoromethyl)phenyl)ethyl)-1H-pyrazol-4-yl)-5-(pyridin-2-yl)-1H-pyrazole-3-carboxamide]",> 10,< 25,–
"C[C@@H](c1ccc(C(F)(F)F)cc1C(F)(F)F)n1cc(NC(=O)c2cc(-c3ncccc3Cl)on2)cn1 [Compound 35, (S)-N-(1-(1-(2,4-bis(trifluoromethyl)phenyl)ethyl)-1H-pyrazol-4-yl)-5-(3-chloropyridin-2-yl)isoxazole-3-carboxamide]",> 10,< 25,–
"O=C(Nc1cnn(Cc2ccc(C(F)(F)F)cc2C(F)(F)F)c1)c1nc(-c2cccc(F)c2)no1 [Compound 4, N-(1-(2,4-bis(trifluoromethyl)benzyl)-1H-pyrazol-4-yl)-3-(3-fluorophenyl)-1,2,4-oxadiazole-5-carboxamide formate]",> 10,–,"inhibition at 1 µM (ATF6; 1 μM test compound, read-out: Inh. ATF6-Luc @ 1 μM [%]): < 25%"
"Cc1nn(Cc2ccc(C(F)(F)F)cc2C(F)(F)F)cc1NC(=O)c1cc(-c2ccccn2)on1 [Compound 29, N-(1-(2,4-bis(trifluoromethyl)benzyl)-3-methyl-1H-pyrazol-4-yl)-5-(pyridin-2-yl)isoxazole-3-carboxamide]",> 10,< 25,–
"C[C@@H](c1ccc(C(F)(F)F)cc1C(F)(F)F)n1cc(NC(=O)c2cnc(-c3ccccn3)s2)cn1 [Compound 105, (S)—N-(1-(1-(2,4-bis(trifluoromethyl)phenyl)ethyl)-1H-pyrazol-4-yl)-2-(pyridin-2-yl)thiazole-5-carboxamide]",–,–,"inhibition at 1 µM (ATF6; 8 h, read-out: Inh. ATF6-Luc @ 1 μM [%], 1 μM test compound): < 25%; IC50 (ATF6; read-out: IC50 ATF6-Luc reporter [μM], dose-response 30 μM to 1 nM): > 10 µM"
"O=C(Nc1cnn(Cc2ccc(C(F)(F)F)cc2C(F)(F)F)c1)c1cncc(-c2ccccc2)c1 [Compound 21, N-(1-(2,4-bis(trifluoromethyl)benzyl)-1H-pyrazol-4-yl)-5-phenylnicotinamide]",> 10,< 25,–
"O=C(Nc1cnn(Cc2ccc(C(F)(F)F)cc2C(F)(F)F)c1)c1cc(-c2ncccc2Cl)on1 [Compound 31, N-(1-(2,4-bis(trifluoromethyl)benzyl)-1H-pyrazol-4-yl)-5-(3-chloropyridin-2-yl)isoxazole-3-carboxamide]",> 10,< 25,–
"C[C@H](c1ccc(C(F)(F)F)cc1C(F)(F)F)n1cc(NC(=O)c2cnc(-c3ccccn3)o2)cn1 [Compound 127, (R)N-(1-(1-(2,4-bis(trifluoromethyl)phenyl)ethyl)-1H-pyrazol-4-yl)-2-(pyridin-2-yl)oxazole-5-carboxamide]",> 10,< 25,–
"O=C(Nc1cnn(Cc2ccc(C(F)(F)F)cc2C(F)(F)F)c1)c1cncc(-c2cccnc2)c1 [Compound 15, N-(1-(2,4-bis(trifluoromethyl)benzyl)-1H-pyrazol-4-yl)-[3,3′-bipyridine]-5-carboxamide]",> 10,< 25,–

# Now from value to compound, other results behind:
IC50 (ATF6; [6]) [µM],SMILES,inhibition at 1 µM (ATF6; [5]) [%],other results
> 10,"O=C(Nc1cnn(C2CCc3ccccc32)c1)c1cc(-c2ccco2)on1 (centres unmarked) [Compound 19, N-(1-(2,3-dihydro-1H-inden-1-yl)-1H-pyrazol-4-yl)-5-(furan-2-yl) isoxazole-3-carboxamide]",< 25,solubility kinetic at 1 h [1]: 9.37 µM
< 1,"O=C(Nc1cnn(Cc2ccc(C(F)(F)F)cc2C(F)(F)F)c1)c1cc(-c2cccs2)on1 [Compound 14, N-(1-(2,4-bis(trifluoromethyl)benzyl)-1H-pyrazol-4-yl)-5-(thiophen-2-yl)isoxazole-3-carboxamide]",25 to 50,"half-life at 1 μM [2]: 32.1 min; microsomal CLint at […], 1 µM [2]: 43 µL/min/mg; Rem. @ hLM (%) [2]: 50.1%; half-life at 1 μM [3, 7]: 7.4 min; microsomal CLint at […], 1 µM ([3]; pH 7.4, mouse liver microsomes): 187 µL/min/mg; Rem. @ mLM (%) [3]: 5.62%; microsomal CLint at […], 1 µM [4]: 314 µL/min/mg; half-life at […], 1 µM [4]: 4.4 min; Rem. @ rLM (%) [4]: 0.85%; solubility kinetic at 1 h [1]: 35.2 µM"
> 10,"C[C@@H](c1ccc(C(F)(F)F)cc1C(F)(F)F)n1cc(NC(=O)c2ccccn2)cn1 [Compound 139, (S)—N-(1-(1-(2,4-bis(trifluoromethyl)phenyl)ethyl)-1H-pyrazol-4-yl)picolinamide]",< 25,–
> 10,"O=C(Nc1cnn(Cc2ccc(C(F)(F)F)cc2C(F)(F)F)c1)c1nnc(-c2ccccn2)o1 [Compound 151, N-(1-(2,4-bis(trifluoromethyl)benzyl)-1H-pyrazol-4-yl)-5-(pyridin-2-yl)-1,3,4-oxadiazole-2-carboxamide]",< 25,–
> 10,"Cc1nc(-c2ccccn2)sc1C(=O)Nc1cnn([C@@H](C)c2ccc(C(F)(F)F)cc2C(F)(F)F)c1 [Compound 107, (S)—N-(1-(1-(2,4-bis(trifluoromethyl)phenyl)ethyl)-1H-pyrazol-4-yl)-4-methyl-2-(pyridin-2-yl)thiazole-5-carboxamide]",< 25,–
> 10,"O=C(Nc1cnn(C(c2ccc(C(F)(F)F)cc2C(F)(F)F)C2CC2)c1)c1cc(-c2ccccn2)on1 (centres unmarked) [Compound 33, N-(1-((2,4-bis(trifluoromethyl)phenyl)(cyclopropyl)methyl)-1H-pyrazol-4-yl)-5-(pyridin-2-yl)isoxazole-3-carboxamide]",< 25,–
> 10,"C[C@@H](c1ccc(C(F)(F)F)cc1C(F)(F)F)n1cc(NC(=O)c2cc(-c3ncccn3)on2)cn1 [Compound 102, (S)—N-(1-(1-(2,4-bis(trifluoromethyl)phenyl)ethyl)-1H-pyrazol-4-yl)-5-(pyrimidin-2-yl)isoxazole-3-carboxamide]",< 25,–
